# Data: patent publication US20250129033A1, “METAP2 INHIBITORS AND USES THEREOF” (Yissum Research Development Company of the Hebrew …, priority 2022, published 2025)
# Entries after “also recorded” stand apart in the source; their conditions may differ.
# Legend:
# [1] = target: T1, recombinant human methionine aminopeptidase 2 (Homo sapiens, UniProt P50579); test: Enzymatic activity assay on recombinant human MetAp2 (L-Met-AMC); format: biochemical; conditions: 2.5 μM, over the course of 1 h, vs untreated control
# T1 construct: purchased bio-techne 3795-ZN
# T1 sequence (P50579 whole entry): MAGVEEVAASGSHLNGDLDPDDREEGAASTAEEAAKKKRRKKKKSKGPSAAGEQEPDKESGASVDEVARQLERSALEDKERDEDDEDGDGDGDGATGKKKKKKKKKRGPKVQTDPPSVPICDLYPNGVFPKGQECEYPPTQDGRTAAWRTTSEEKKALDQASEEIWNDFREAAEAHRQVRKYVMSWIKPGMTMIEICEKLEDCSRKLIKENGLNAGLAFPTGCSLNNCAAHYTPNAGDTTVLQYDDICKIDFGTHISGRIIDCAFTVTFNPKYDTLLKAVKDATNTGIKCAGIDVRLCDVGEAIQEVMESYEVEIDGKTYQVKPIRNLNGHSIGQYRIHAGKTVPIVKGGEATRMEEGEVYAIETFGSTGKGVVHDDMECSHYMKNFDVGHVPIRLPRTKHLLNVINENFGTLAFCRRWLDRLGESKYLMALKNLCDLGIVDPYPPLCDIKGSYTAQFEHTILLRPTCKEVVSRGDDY
# Protocol: The enzymatic assay was performed using 5 μg protein per sample as described previously. To test the inhibitory effect of AD-3281, at the same conditions, AD-3281 was also added to 0.33 μg recombinant human methionine aminopeptidase 2 obtained from bio-techne (USA, 3795-ZN), samples were incubated with the inhibitor for 15 min at RT before adding the substrate. The reaction was started by adding 250 μM L-Met-AMC as a substrate. An increase of fluorescence, due to substrate degradation during the enzymatic assay, was measured every 20 seconds for 1 h and 30 min at 37° C. using a plate reader (Wallac 1420 VICTOR plate reader, Perkin-Elmer Life Sciences, USA). The assay was carried out on a 96-well plate on ice and it was performed in an assay buffer (pH 7.5) containing 50 mM HEPES, 0.1 mM CoCl2, 100 mM NaCl and 1 mg/mL PEG 6000, in a final volume of 100 μL.
# (§1) A375 and MDA-MB-231 were sub-cultivated using trypsin, then centrifuged and counted. […] The protein content of the supernatant was determined according to the Bradford protein assay using BSA as the standard. […] An increase of fluorescence, due to substrate degradation during the enzymatic assay, was measured every 20 seconds for 1 h and 30 min at 37° C. using a plate reader (Wallac 1420 VICTOR plate reader, Perkin-Elmer Life Sciences, USA). […]
# [2] = target: T2, MetAp2 in A375 cancer cells (Homo sapiens, UniProt P50579); test: MetAp2 enzymatic activity in A375 cell homogenate; format: biochemical; conditions: 2.5 μM
# T2 construct: host or cells: A375 cell homogenate (RIPA supernatant, 5 µg protein)
# T2 sequence (P50579 whole entry): as above
# Protocol: (§2) A375 and MDA-MB-231 were sub cultivated using trypsin, then centrifuge and counted. To obtain a homogenate containing an equivalent cell number, cells were resuspended in an appropriate volume of cold RIPA containing a protease inhibitor cocktail. Insoluble cellular components were removed by centrifugation at 15,000 RPM for 10 min at 4° C. The protein content of the supernatant was determined according to the Bradford protein assay using BSA as the standard.
# (§3) The enzymatic assay was performed using 5 μg protein per sample as described previously. […] An increase of fluorescence, due to substrate degradation during the enzymatic assay, was measured every 20 seconds for 1 h and 30 min at 37° C. using a plate reader (Wallac 1420 VICTOR plate reader, Perkin-Elmer Life Sciences, USA). […]
# as §1
# [3] = target: T3, MetAp2 in MDA-MB-231 cancer cells (Homo sapiens, UniProt P50579); test: MetAp2 enzymatic activity in MDA-MB-231 cell homogenate; format: biochemical; conditions: 2.5 μM
# T3 construct: host or cells: MDA-MB-231 cell homogenate (RIPA supernatant, 5 µg protein)
# T3 sequence (P50579 whole entry): as above
# Protocol: as §2, §3, §1
# [4] = test system: A375 3D multicellular spheroids; test: A375 3D spheroid viability (WST1); format: cell-based, human; conditions: 50 μM free inhibitor, 96 h
# Protocol: 3D Petri Dish 35-well array (Microtissues Inc., RI, USA) was used to create 2% agarose hydrogel micro-wells. Each well contained 5,000 cells of A375 cells. 30 minutes after seeding, 1 ml of medium was added and templates were incubated at 37° C. for 24 hours. […] The absorbance was measured at 450 nm using a plate reader (Wallac 1420 VICTOR plate reader, Perkin-Elmer Life Sciences, USA).
smiles,measurement,setting,value
"COC1C(OC(=O)CC23CC4CC(CC(C4)C2)C3)CCC2(CO2)C1C1(C)OC1CC=C(C)C (stereo not drawn) [AD-3281, Fumagillol-1-adamantylacetate]",inhibition of rhMetAp2 enzymatic activity,[1],95%
same,inhibition of MetAp2 activity in A375 after 10 minutes,[2]; 10 minutes of exposure,Significant inhibition
same,reduction of MetAp2 enzymatic activity in A375,[2]; over the course of 1 h,64%
same,inhibition of MetAp2 activity in MDA-MB-231 after 10 minutes,[3]; 10 minutes of exposure,Significant inhibition
same,reduction of MetAp2 enzymatic activity in MDA-MB-231,[3]; over the course of 1 h,80%
same,effect of free inhibitor on spheroids viability,[4],did not show a significant reduction; also recorded: slight reduction of spheroids viability
